≈ marks a conversion by molar mass, not a printed value.
Legend:
in vitro [1] = settings: SD, HW or BN, rat, plasma
in vitro [2] = settings: Beagle, dog, plasma
physchem [3] = test: physchem
in vitro [4] = settings: human
in vitro [5] = settings: hepatocytes
physchem [6] = settings: octan-1-ol/water
in vitro [7] = settings: human, plasma
in vitro [8] = settings: human, hepatocytes
physchem [9] = settings: pH 7.4 buffer

NC(=O)c1cnc(N[C@H]2CCCNC2)c2cc(-c3ccccc3)sc12
fraction unbound at 5 h (in vitro [1]): 0.224 | fraction unbound at 5 h (in vitro [2]): 0.0366

O=C(O)COc1ccc(C(F)(F)F)cc1CN1CCN(C(=O)c2ccccc2)CC1
pKa (physchem [3]): 6.9 | microsomal CLint (in vitro [4]; liver microsomes): 4.7 µL/min/mg | hepatocyte CLint (in vitro [5]): < 3 µL/min/1e6 cells

CNCC[C@@H](Oc1cc(Cl)ccc1C#N)c1ccccc1
pKa (physchem [3]): 9.9 | hepatocyte CLint (in vitro [5]): > 150 µL/min/1e6 cells

CNCC[C@@H](Oc1cc(OC)ccc1C#N)c1ccccc1
pKa (physchem [3]): 10.2 | logD (physchem [6]; pH 7.4, LogD7.4): 0.87 | microsomal CLint (in vitro [4]; liver microsomes): 26 µL/min/mg | hepatocyte CLint (in vitro [5]): 142 µL/min/1e6 cells

CN(C)CCN1CCN(c2cc(C(=O)NC[C@H]3CC[C@H](CNC(=O)OC(C)(C)C)CC3)c3ccccc3n2)CC1
fraction unbound at 5 h (in vitro [2]): 0.0293

Cc1cc(-c2ccc(Cl)c(C(=O)NCC3(O)CCCCCC3)c2)nn1C[C@H](O)CN
pKa (physchem [3]): 8.6 | logD (physchem [6]; pH 7.4, LogD7.4): 0.57 | fraction unbound at 5 h (in vitro [7]; PPB): 0.304 | fraction unbound at 5 h (in vitro [1]): 0.309 | microsomal CLint (in vitro [4]; liver microsomes): < 3 µL/min/mg | hepatocyte CLint (in vitro [5]): < 3 µL/min/1e6 cells | hepatocyte CLint (in vitro [8]): < 3 µL/min/1e6 cells

Cc1c(Sc2ccc(Cl)cc2)c2c(S(C)(=O)=O)cccc2n1CC(=O)O
logD (physchem [6]; pH 7.4, LogD7.4): 0.58 | fraction unbound at 5 h (in vitro [7]; PPB): 0.035 | fraction unbound at 5 h (in vitro [2]): 0.0256 | microsomal CLint (in vitro [4]; microsomes): < 3 µL/min/mg

CCCCc1nc2c(N)nc3ccccc3c2n1CC(C)C
pKa (physchem [3]): 7.3 | logD (physchem [6]; pH 7.4, LogD7.4): 3.82 | fraction unbound at 5 h (in vitro [7]; PPB): 0.062 | fraction unbound at 5 h (in vitro [1]): 0.0307 | microsomal CLint (in vitro [4]; liver microsomes): < 3 µL/min/mg

Cc1c(CC(=O)O)c2cc(F)ccc2n1S(=O)(=O)c1ccc(S(C)(=O)=O)cc1
logD (physchem [6]; pH 7.4, LogD7.4): -0.44 | fraction unbound at 5 h (in vitro [2]): 0.0521

NC1=Nc2ccccc2Sc2cccc(F)c21
pKa (physchem [3]): 6.5 | fraction unbound at 5 h (in vitro [7]; PPB): 0.0568 | hepatocyte CLint (in vitro [8]): 13.2 µL/min/1e6 cells

NC1=Nc2ccccc2Sc2ccccc21
pKa (physchem [3]): 7.2 | hepatocyte CLint (in vitro [8]): 7.94 µL/min/1e6 cells

CC(C)Cn1c(=O)n(C)c(=O)c2c(C(=O)N3CC[C@@H](O)C3)c(Cc3c[nH]c4ccccc34)sc21
logD (physchem [6]; pH 7.4, LogD7.4): 2.35 | fraction unbound at 5 h (in vitro [7]; PPB): 0.0854 | fraction unbound at 5 h (in vitro [2]): 0.443 | microsomal CLint (in vitro [4]; liver microsomes): 107 µL/min/mg

Cc1cc(F)ccc1Oc1cccc2c(=O)cc(N3CCOCC3)[nH]c12
fraction unbound at 5 h (in vitro [1]): 0.0854 | fraction unbound at 5 h (in vitro [2]): 0.0088

COc1ncc(-c2cccc3c2C[C@H](NC(=O)c2ccc(COCC(F)(F)F)nc2)CO3)cn1
solubility thermodynamic (physchem [9]): 158 µM (≈ 75.2 µg/mL) | fraction unbound at 5 h (in vitro [7]; PPB): 0.0366 | fraction unbound at 5 h (in vitro [2]): 0.0705

Cc1ccc2c(c1)c(-c1cc(C)nc3ccccc13)c(C)n2CC(=O)O
logD (physchem [6]; pH 7.4, LogD7.4): 2.88 | fraction unbound at 5 h (in vitro [7]; PPB): 0.004 | fraction unbound at 5 h (in vitro [2]): 0.0133 | microsomal CLint (in vitro [4]; liver microsomes): < 3 µL/min/mg

COc1ccc2c(c1)c(CC(=O)O)c(C)n2-c1ccnc2cc(Cl)ccc12
logD (physchem [6]; pH 7.4, LogD7.4): 1.68 | fraction unbound at 5 h (in vitro [7]; PPB): 0.0099 | fraction unbound at 5 h (in vitro [2]): 0.0183 | microsomal CLint (in vitro [4]; liver microsomes): < 3 µL/min/mg

N#Cc1ccc2ccc(=O)n(CCN3CC[C@@H](NCc4cc5c(cn4)OCCO5)[C@@H](O)C3)c2c1
logD (physchem [6]; pH 7.4, LogD7.4): 0.45 | fraction unbound at 5 h (in vitro [1]): 0.471 | fraction unbound at 5 h (in vitro [2]): 0.602

Cc1c(Cl)ccc(OC2CCN(C3CCN(C(=O)c4cccc(S(C)(=O)=O)c4)CC3)CC2)c1Cl
logD (physchem [6]; pH 7.4, LogD7.4): 3.33 | fraction unbound at 5 h (in vitro [7]; PPB): 0.035 | fraction unbound at 5 h (in vitro [2]): 0.035 | microsomal CLint (in vitro [4]; liver microsomes): 13.5 µL/min/mg

COc1ccc(NC(=O)c2ccc(Cn3ccnn3)c3ccccc23)c(C(=O)NCC2CCOCC2)n1
fraction unbound at 5 h (in vitro [2]): 0.028

CC(C)(C)NC(=O)NCCN1CCN(CC(=O)Nc2cc(Cl)cc(Cl)c2)CC1
fraction unbound at 5 h (in vitro [7]; PPB): 0.0521 | fraction unbound at 5 h (in vitro [2]): 0.0556

CC(C)c1nc2ccc(-c3ccc(F)cc3)cc2c(=O)n1C[C@H]1CCCN(C(C)C)C1
pKa (physchem [3]): 9.91 | logD (physchem [6]; pH 7.4, LogD7.4): 3.6 | solubility thermodynamic (physchem [9]): 537 µM (≈ 226 µg/mL) | microsomal CLint (in vitro [4]; microsomes): 12.9 µL/min/mg | hepatocyte CLint (in vitro [5]): 29.5 µL/min/1e6 cells

Cc1nc2ccc(-c3ccc(Cl)cc3)cc2c(=O)n1C[C@H]1CCCN(C(C)C)C1
pKa (physchem [3]): 10.1 | logD (physchem [6]; pH 7.4, LogD7.4): 3.3 | microsomal CLint (in vitro [4]; microsomes): < 3 µL/min/mg | hepatocyte CLint (in vitro [5]): 3.8 µL/min/1e6 cells

OC[C@H]1C[C@@H](n2nnc3c(N[C@@H]4C[C@H]4c4ccc(F)c(F)c4)nc(SCCC(F)(F)F)nc32)[C@H](O)[C@@H]1O
logD (physchem [6]; pH 7.4, LogD7.4): 3.99 | solubility thermodynamic (physchem [9]): 7.2 µM (≈ 3.93 µg/mL) | fraction unbound at 5 h (in vitro [7]; PPB): 0.0015 | fraction unbound at 5 h (in vitro [2]): 0.002

OCCO[C@H]1C[C@@H](n2nnc3c(N[C@@H]4C[C@H]4c4ccc(F)c(F)c4)nc(SCCC(F)(F)F)nc32)[C@H](O)[C@@H]1O
logD (physchem [6]; pH 7.4, LogD7.4): 4.17 | fraction unbound at 5 h (in vitro [7]; PPB): 0.0015 | fraction unbound at 5 h (in vitro [2]): 0.0046

C[C@H](CO)Nc1nc(SCc2cccc(F)c2F)nc2[nH]c(=O)cnc12
logD (physchem [6]; pH 7.4, LogD7.4): 3.1 | solubility thermodynamic (physchem [9]): 3.5 µM (≈ 1.33 µg/mL) | fraction unbound at 5 h (in vitro [7]; PPB): 0.0114 | fraction unbound at 5 h (in vitro [2]): 0.028

O=S(=O)(c1ccccc1)N1CCN(Cc2ccccc2)CC1
pKa (physchem [3]): 5.6 | microsomal CLint (in vitro [4]; liver microsomes): 64 µL/min/mg | hepatocyte CLint (in vitro [5]): > 150 µL/min/1e6 cells

CC(C)Cc1nn(C)c(=O)c2c(SCCCO)n(Cc3cccc4ccccc34)cc12
fraction unbound at 5 h (in vitro [7]; PPB): 0.0027 | fraction unbound at 5 h (in vitro [2]): 0.0013

O=C(NCC12CC3CC(CC(C3)C1)C2)c1cc(CN2C[C@@H]3C[C@H]2CN3)ccc1Cl
logD (physchem [6]; pH 7.4, LogD7.4): 1.45 | fraction unbound at 5 h (in vitro [7]; PPB): 0.0968 | fraction unbound at 5 h (in vitro [2]): 0.114 | microsomal CLint (in vitro [4]; liver microsomes): 13 µL/min/mg

C[C@H](CO)Nc1nc(SCc2cccc(F)c2F)nc2nc(N)sc12
logD (physchem [6]; pH 7.4, LogD7.4): 3.29 | solubility thermodynamic (physchem [9]): 8.1 µM (≈ 3.11 µg/mL) | fraction unbound at 5 h (in vitro [7]; PPB): 0.0196 | fraction unbound at 5 h (in vitro [2]): 0.0366

CCCSc1nc(N[C@@H]2C[C@H]2c2ccccc2)c2nnn([C@@H]3C[C@H](O)[C@@H](O)[C@H]3O)c2n1
logD (physchem [6]; pH 7.4, LogD7.4): 3.97 | solubility thermodynamic (physchem [9]): 1.1 µM (≈ 0.487 µg/mL) | fraction unbound at 5 h (in vitro [2]): 0.0066 | microsomal CLint (in vitro [4]; liver microsomes): < 3 µL/min/mg

CCCCNc1nc(SCCC)nc2c1nnn2[C@@H]1C[C@H](CO)[C@@H](O)[C@H]1O
logD (physchem [6]; pH 7.4, LogD7.4): 3.07 | fraction unbound at 5 h (in vitro [7]; PPB): 0.024 | fraction unbound at 5 h (in vitro [2]): 0.0467 | microsomal CLint (in vitro [4]; microsomes): 6 µL/min/mg

C[C@H](CO)Nc1nc(SCc2cccc(Cl)c2F)nc2[nH]c(=O)sc12
logD (physchem [6]; pH 7.4, LogD7.4): 3.53 | solubility thermodynamic (physchem [9]): 1 µM (≈ 0.401 µg/mL) | fraction unbound at 5 h (in vitro [2]): 0.0005

Cc1oc(CN2CCNCC2)cc1C(=O)NCC12CC3CC(CC(C3)C1)C2
logD (physchem [6]; pH 7.4, LogD7.4): 1.03 | fraction unbound at 5 h (in vitro [7]; PPB): 0.148 | fraction unbound at 5 h (in vitro [2]): 0.437

CCOc1cc2ncc(C(N)=O)c(Nc3cc(C)ccc3F)c2cc1N1CCN(C)CC1
fraction unbound at 5 h (in vitro [1]): 0.107 | fraction unbound at 5 h (in vitro [2]): 0.365

OC[C@H](Nc1ncc(Cl)c(Nc2cc(C3CC3)n[nH]2)n1)c1ccc(F)cc1
logD (physchem [6]; pH 7.4, LogD7.4): 3.75 | fraction unbound at 5 h (in vitro [7]; PPB): 0.0437 | fraction unbound at 5 h (in vitro [2]): 0.0499

Cc1ccc(C(=O)N2CC3CNCC(C2)O3)cc1NC(=O)CC12CC3CC(CC(C3)C1)C2
pKa (physchem [3]): 7.18 | logD (physchem [6]; pH 7.4, LogD7.4): 2.12 | microsomal CLint (in vitro [4]; microsomes): 71.2 µL/min/mg | hepatocyte CLint (in vitro [5]): 16.2 µL/min/1e6 cells

O=C(NCC12CC3CC(CC(C3)C1)C2)c1ccnc(N2CCNCC2)c1Cl
pKa (physchem [3]): 8.7 | microsomal CLint (in vitro [4]; liver microsomes): 73 µL/min/mg | hepatocyte CLint (in vitro [5]): 7.2 µL/min/1e6 cells

CCCSc1nc(N)c2ncn([C@@H]3O[C@H](CO)[C@@H](O)[C@H]3O)c2n1
fraction unbound at 5 h (in vitro [7]; PPB): 0.483 | fraction unbound at 5 h (in vitro [2]): 0.591

CC(C)Cn1c(=O)n(C)c(=O)c2c(SCCCO)n(Cc3cccc4ccccc34)cc21
logD (physchem [6]; pH 7.4, LogD7.4): 4.36 | fraction unbound at 5 h (in vitro [2]): 0.0034

CC(NC(C)(C)C)C(=O)c1cccc(Cl)c1 (configuration not stated) [BUPROPION]
pKa (physchem [3]): 8.4 | logD (physchem [6]; pH 7.4): 2.12 | fraction unbound at 5 h (in vitro [7]): 0.54 | microsomal CLint (in vitro [4]; microsomes): 12 µL/min/mg | hepatocyte CLint (in vitro [5]): 72.4 µL/min/1e6 cells

CCCNC(=O)NS(=O)(=O)c1ccc(Cl)cc1 [CHLORPROPAMIDE]
logD (physchem [6]; pH 7.4, LogD7.4): -0.33 | fraction unbound at 5 h (in vitro [7]; PPB): 0.04 | fraction unbound at 5 h (in vitro [2]): 0.142

CNc1cc2[nH]c(=O)n(-c3ccc(NC(=O)NS(=O)(=O)c4ccc(Cl)s4)cc3)c(=O)c2cc1F [ELINOGREL]
fraction unbound at 5 h (in vitro [7]; PPB): 0.0042 | fraction unbound at 5 h (in vitro [2]): 0.0069

CC(C)n1c(/C=C/C(O)CC(O)CC(=O)O)c(-c2ccc(F)cc2)c2ccccc21 (configuration not stated) [FLUVASTATIN]
fraction unbound at 5 h (in vitro [7]): 0.0048 | fraction unbound at 5 h (in vitro [2]): 0.0028

CCCc1nc(C(C)(C)O)c(C(=O)O)n1Cc1ccc(-c2ccccc2-c2nnn[nH]2)cc1 [OLMESARTAN]
fraction unbound at 5 h (in vitro [2]): 0.0119

CCNC(=O)[C@H]1C[C@@](F)(c2ccc(CN3CCCC3)c(F)c2)C1 [PF-03654746]
fraction unbound at 5 h (in vitro [1]): 0.772 | fraction unbound at 5 h (in vitro [2]): 0.807

CNC(=C[N+](=O)[O-])NCCSCc1ccc(CN(C)C)o1 [RANITIDINE]
logD (physchem [6]; pH 7.4, LogD7.4): -0.95 | fraction unbound at 5 h (in vitro [2]): 0.711
